Where “and” joins values, the source holds several entries; their conditions need not be identical. Equal values may be shown once. Read-outs that look alike come from different tables or passages of the source.
How the values were obtained:
[1] = system: porcine pancreatic lipase; assay: In vitro hydrolysis by porcine pancreatic lipase; type: in vitro ADME; conditions: 37° C., simulated intestinal micellar solution pH 6.5, up to 180 min
Experimental: To provide for higher throughput of experiments, unless otherwise stated, in vitro hydrolysis of TST related compounds was performed via incubation with porcine pancreatic lipase. This provides a more reproducible source of pancreatic enzymes, facilitates enhanced experimental throughput and is also a greater challenge than collected rat enzymes (since enzyme activity in rat intestinal fluid is low). Briefly, pancreatic lipase solution was prepared prior to the hydrolysis experiment by dispersion of 1 g porcine pancreatin in 5 ml of lipolysis buffer and 16.9 μl of 5M NaOH. The suspension was mixed well and centrifuged at 3500 rpm for 15 minutes at 5° C. to provide a supernatant. An amount of 1000 ml of lipolysis buffer was prepared with 0.474 g of tris-maleate (2 mM), 0.206 g of CaCl2.H2O (1.4 mM) and 8.775 g of NaCl (150 mM) adjusted with NaOH to pH 6.5. To assess the potential for prodrug hydrolysis in the intestine, 20 μl of prodrug solution (1 mg/ml dissolved in acetonitrile), 900 μl of simulated intestinal micellar solution [prepared with 0.783 g of NaTDC (3 mM) and 0.291 g of phosphatidyl choline (0.75 mM) in 500 ml lipolysis buffer] and 100 μl of enzyme solution were incubated at 37° C. 20 μl samples of the incubation solution were taken at 0, 5, 10, 15, 30, 60, 90, 120 and 180 minutes post incubation and added to 180 μl of ACN to stop lipolysis. The mixture was vortexed and centrifuged at 5000 rpm for 5 minutes to precipitate proteins prior to analysis. The supernatant was analysed by HPLC-MS for residual compound concentrations, and the potential products of compound hydrolysis were analysed.
On incubation with digestive enzymes the monoglycerides forms of the prodrugs are formed very rapidly. The stability in simulated intestinal conditions is therefore better assessed by the stability of the monoglycerides form that is generated by the initial digestion process. The monoglycerides form must remain intact to be absorbed and re-esterified in the enterocyte prior to entry into the lymphatics. […] This is consistent with the increase in lymphatic transport of Compound 18 when compared to Compound 10, and the high extent of lymphatic transport of Compound 16 in FIG. 4.

[2] = Pharmacokinetic study in greyhound dogs, testosterone plasma concentrations after oral administration; type: in vivo; conditions: for Cmax / Tmax / AUC0-24 h: oral capsules; for Cmax / AUC0-24 h: normalized to 2 mg/kg equivalent testosterone dose
Experimental: For the dog studies, female greyhound dogs were held in a large animal research facility for at least 5 days prior to the commencement of studies. The dogs were allowed to acclimatise for at least 4 days prior to commencing the study. The dogs were fasted for 12 h up to 30 min prior to drug administration. For the fed state studies (n=4 for TU or Compound 13), dogs received 680 g of standard commercial dog food containing 5% fat min prior to drug administration. In the fasted study (n=1 for Compound 13), the dog remained fasted until after 4 h post-dose. Water was available ad libitum throughout the study for all dogs. On the study day, a 20 gauge intravenous catheter was inserted into a cephalic vein to allow blood sampling. The dogs were free to move around (not restrained) after cannulation. For the fed state studies, Andriol Testocaps (the commercial TU product) or Compound 13 was given to the dogs. Andriol Testocaps were supplied by Merck Sharp & Dohme (Australia) Pty Limited and were formulated as soft gelatin capsule containing a 12.0% (w/w) solution of TU in lauroglycol FCC/castor oil [40:60% (w/w)] with the individual capsule composition being 40 mg of TU, lauroglycol FCC, castor oil, gelatin, glycerol, and sunset yellow (E110). Compound 13 was prepared in a long-chain lipid based self-emulsifying drug delivery system (SEDDS) that consisted of 30.5% w/w soybean oil, 30.5% w/w Maisine 35-1, 31.6% w/w Cremophor EL and 7.4% w/w ethanol. Formulations were filled into hard gelatin capsules. Two capsules of Andriol Testocaps containing 80 mg TU or two capsules of Compound 13 containing a total dose of 90 mg Compound 13 dissolved in 2 g of the SEDDS formulation were administrated to the fed greyhound dog by placing the capsules as far posterior to the pharynx as possible, closing the mouth and rubbing the throat to stimulate swallowing. Subsequently 50 mL of water was administered orally via a syringe. Two capsules of Compound 13 formulation were also administrated to the fasted dogs for fasted state studies. After oral administration, blood samples (approx. 3 mL each) were taken via the cephalic vein cannula from 5 min prior to administration up to 10 hours post-dosing. The patency of the catheters was maintained by flushing with a small volume of heparinised saline (1-2 IU/mL) after each blood sample was withdrawn. Blood samples at 24 h were taken by venepuncture. Plasma was separated by centrifugation and aliquots of each plasma sample were transferred into eppendorf tubes and store at −80° C. prior to analysis by LC-MS-MS.

[3] = Pharmacokinetic study in rats, testosterone plasma concentrations after oral gavage; conditions: for Tmax / AUC0-24 h / Cmax: conscious carotid artery cannulated SD female rats; for AUC0-24 h / Cmax: normalized to 2 mg/kg equivalent testosterone dose
Experimental: In order to assess the oral bioavailability of the compounds of the invention, pharmacokinetic studies were conducted in rats and dogs. […] The rats were then allowed to regain consciousness and fasted overnight prior to the commencement of experiments with free access to water. […] The oral formulation of Compound 2 contained 3 mg of the compound, 20 mg oleic acid and 12.5 mg Tween 80 dispersed in 1 mL PBS. Blood samples were collected from the carotid artery cannula from 5 min prior to administration up to 24 h post-dosing and centrifuged at 5000 rpm for 5 min to separate plasma. […] Plasma samples were stored at −80° C. prior to assay by HPLC-MS-MS. In this case samples were assayed for free drug (i.e. non-glyceride associated drug) and were not hydrolysed prior to assay (as was the case with the lymph samples).
FIG. 12 illustrates dose-normalized testosterone plasma concentrations following oral gavage of formulations to conscious, carotid artery cannulated female SD rats. Formulations contained 1 mg of TU, or 2 mg of compounds of the invention containing testosterone dispersed in 40 mg oleic acid, 25 mg Tween 80 and 2 ml PBS. Doses are normalized to a 2 mg/kg equivalent dose of testosterone. Data are shown as mean±SEM for all groups (n=4 or 3 for each group). The embedded figure is the plot of the dose-normalized plasma AUC0-24h (nmol×h/L) of testosterone in the form of a bar graph.

[4] = In vitro hydrolysis by rat digestive fluid (bile and pancreatic fluid); type: in vitro ADME; conditions: 37° C., drug-loaded lipid formulation, up to 180 min
Experimental: In vitro hydrolysis of MPA related compounds was performed via incubation with rat digestive fluid. Rat digestive fluid was collected from anesthetized rats via cannulation of the common bile-pancreatic duct immediately prior to the entry of the duct into the duodenum (i.e. below the point of entry of pancreatic secretions). This allowed simultaneous collection of bile and pancreatic fluid. The digestive fluid was collected continuously for 2 h, during which time a blank lipid formulation (prepared as described in the rat lymphatic transport studies but without the addition of drug) was infused into the duodenum at a rate of 2.8 ml/h to mimic conditions following drug administration. Bile and pancreatic fluid was maintained at 37° C. and used within 0.5 h of collection for in vitro prodrug hydrolysis experiments. The hydrolysis experiments were conducted via incubation (at 37° C.) of 0.375 mL of rat digestive fluid with 0.625 ml of the drug-loaded lipid formulations (as described in the rat lymphatic transport studies). The volume ratio of digestive fluid to formulation mimicked the flow rate of bile and pancreatic fluid (˜1.5 mL/h) and the infusion rate of the intraduodenal formulations (2.8 mL/h) during the in vivo lymphatic transport studies. Aliquots of 10 μL (samples taken at 0, 2, 5, 10, 15, 30, 60, 90, 120, 180 min) were added to 990 μL of acetonitrile:water (4:1, v/v) to stop lipolysis, vortexed for 1 min and centrifuged at 4500 g for 5 min to precipitate proteins prior to analysis. The supernatant was analysed by HPLC-MS for residual compound concentrations, and the potential products of compound hydrolysis were analysed.
On incubation with digestive enzymes the monoglycerides forms of the prodrugs are formed very rapidly. The stability in simulated intestinal conditions is therefore better assessed by the stability of the monoglycerides form that is generated by the initial digestion process. The monoglycerides form must remain intact to be absorbed and re-esterified in the enterocyte prior to entry into the lymphatics. […]

[5] = for Fold increase (compared with MPA dosed group): lymphatic transport of total MPA derivatives
Experimental: Lipid formulations containing the compound of interest were then administered to the animals, the lymph collected and drug concentrations in the lymph subsequently quantified.
Lipid-based formulations of the compounds of the invention or control compounds were prepared as previously described (Trevaskis, N. L. et al., Pharmaceutical Research, 2005, 22(11), 1863-1870). Briefly, approximately 2 mg of the compound (1 mg in the case of Compound 35 and Compound 1), 40 mg oleic acid and 25 mg Tween 80 were mixed in a glass vial until equilibrated (gentle heat (below 50° C.) may be applied for a short period).
[…] This was to eliminate the potential for the relatively high and variable levels of endogenous testosterone in male rats interfering with the quantification of exogenously dosed testosterone. Rats (240-320 g) were maintained on a standard diet and fasted overnight with free access to water prior to experiments. Anaesthetised rats were placed on a heated pad at 37° C. and cannulas were inserted into the duodenum (for formulation administration and rehydration), mesenteric lymph duct (for lymph collection) and carotid artery (for blood collection) as previously described (Edwards et al. Advanced Drug Delivery Reviews 2001, 50(1), 45-60). Post-surgery, rats were re-hydrated for 0.5 h via intraduodenal infusion of normal saline at 2.8 mL/h. The lipid formulations were infused into the duodenum at 2.8 mL/h for 2 h, after which the infusion was changed to 2.8 mL/h normal saline for the remainder of the experiment. Lymph was continuously collected for 6 to 8 h into pre-weighed Eppendorf tubes containing 10 μL of 1,000 IU/mL heparin. The collection tubes were changed hourly and lymph flow was measured gravimetrically. Aliquots of hourly lymph samples were stored at −80° C. prior to assay.
Drug concentration in lymph is expressed as total drug and includes free drug and drug associated with different glycerides. This is assayed by hydrolysis of lymph (to liberate drug from any re-esterified glycerides) prior to assessment of free drug.
FIG. 1 illustrates the cumulative lymphatic transport of total testosterone related derivatives (% of administered dose) versus time in anaesthetised mesenteric lymph duct cannulated female SD rats following intraduodenal infusion of formulations from 0 to 2 h. Each Formulation contained 2 mg of the exemplified compound or the control, testosterone undecanoate (TU), dispersed in 40 mg oleic acid, 25 mg Tween 80 and 5.6 ml PBS.

[6] = greyhound dog, fasted state (n = 1)
[7] = testosterone in plasma, oral gavage
[8] = anaesthetised, mesenteric lymph-duct cannulated male SD rats, intraduodenal infusion 0-2 h, cumulative over 8 h
[9] = male SD rats, intraduodenal infusion

CCCCCCCCCCCCCCCC(=O)OCC(COC(=O)CCCCCCCCCCCCCCC)OC(=O)CCCCCCCCC(=O)O[C@H]1CC[C@H]2[C@@H]3CCC4=CC(=O)CC[C@]4(C)[C@H]3CC[C@]12C [Compound 13]
stability of the monoglyceride form during in vitro incubation with porcine pancreatic lipase [1]: not highly stable | AUC0-24 h fold increase compared with TU group ([2]; greyhound dog, fasted state (n = 1), dose-normalized): 7.3 fold | Cmax ([2]; conscious greyhound dogs, fed state, TU as Andriol Testocaps, Compound 13 in SEDDS): 455 ± 9.4 nM | Tmax [2, 6]: 2.5 h | AUC0-24 h [2, 6]: 1.0268 µM·h | Cmax [2, 6]: 386 nM | Tmax ([2]; greyhound dogs, fed state): 1.8 ± 0.3 h | AUC0-24 h ([2]; greyhound dogs, fed state): 1.1166 ± 0.0324 µM·h | systemic exposure of parent testosterone (dose-normalised plasma AUC0-24h), fold greater than after Compound 41 or Compound 10 ([3]; oral administration, SD female rats): 10 fold | Tmax [3, 7]: 0.9 ± 0.1 h | AUC0-24 h [3, 7]: 0.1871 ± 0.0358 µM·h | Cmax [3, 7]: 197 ± 53.4 nM

CCCCCCCCCCCCCCCC(=O)OCC(COC(=O)CCCCCCCCCCCCCCC)OC(=O)CC(C)CC(=O)O[C@H]1CC[C@H]2[C@@H]3CCC4=CC(=O)CC[C@]4(C)[C@H]3CC[C@]12C (stereo partly drawn) [Compound 18]
stability of the monoglyceride form during in vitro incubation with freshly collected rat bile and pancreatic fluid [4]: significantly stabilised the monoglyceride intermediates | Transport of total TST derivatives in lymph (% of dose) ([5]; anaesthetised, mesenteric lymph-duct cannulated female SD rats, intraduodenal infusion 0-2 h, cumulative over 8 h): 28.0 ± 3.4 % of dose | lymphatic transport, fold higher than straight chain counterpart Compound 10 ([5]; female SD rats, intraduodenal infusion): approximately 2 fold | Fold increase (compared with control group dosed with TU) ([5]; lymphatic transport of total TST derivatives, female SD rats, intraduodenal infusion): 14.9 fold | AUC0-24 h fold increase compared with TU group ([3]; testosterone in plasma, oral gavage, SD female rats, dose-normalized): 0.3 fold | Tmax [3, 7]: 1.3 ± 0.2 h | AUC0-24 h [3, 7]: 0.002 ± 0.0001 µM·h | Cmax [3, 7]: 1.8 ± 0.3 nM

CCCCCCCCCCCCCCCC(=O)OCC(COC(=O)CCCCCCCCCCCCCCC)OC(=O)CCCCOC(=O)CC/C(C)=C/Cc1c(O)c2c(c(C)c1OC)COC2=O [Compound 31]
stability of the monoglyceride form during in vitro incubation with freshly collected rat bile and pancreatic fluid [4]: relatively rapidly degraded | Transport of total MPA derivatives in lymph (% of dose) [5, 8]: 8.2 % of dose and 8.2 ± 1.3 % of dose | Fold increase (compared with MPA dosed group) [5, 9]: 48.9 fold

CCCCCCCCCCCCCCCC(=O)OCC(COC(=O)CCCCCCCCCCCCCCC)OC(=O)CCCCCOC(=O)CC/C(C)=C/Cc1c(O)c2c(c(C)c1OC)COC2=O [Compound 32]
stability of the monoglyceride form during in vitro incubation with freshly collected rat bile and pancreatic fluid [4]: relatively rapidly degraded | Transport of total MPA derivatives in lymph (% of dose) [5, 8]: 9.6 % of dose and 9.6 ± 1.4 % of dose | Fold increase (compared with MPA dosed group) [5, 9]: 57.5 fold | Transport of total MPA derivatives in lymph (% of dose) ([5]; male SD rats, intraduodenal infusion, co-administration with 0.6 mg of JZL184 and 9 μg of orlistat): 18.8 % of dose

Reference: patent US11311512B2, “Lymph directing prodrugs” (priority 2014, dated 2022)
